Molecules are shown by their SMILES. Read-outs that look alike come from different tables or passages of the source.

Data set [1] deals with A431-B1. The experiment in a line: In vitro cytotoxicity. The format is cell-based. The source says: (§1) Experiments were repeated at least 3 times.
For data set [2], the system named is A431-G2. Briefly: In vitro cytotoxicity. It is filed as cell-based.
Source text: as §1

Data set [3] deals with A431. The experiment in a line: In vitro cytotoxicity. To be noted: Homo sapiens, A-431. It is filed as cell-based.
Source text: as §1

Data set [4] relates to MDA-MB-468. The experiment in a line: In vitro cytotoxicity. It is filed as cell-based. To be noted: Homo sapiens; MDA-MB-468 breast cancer cell line.
Source text: as §1

Data set [5] concerns P388/ADR. Briefly: In vitro cytotoxicity. The format is cell-based. To be noted: Mus musculus.
Source text: as §1

Data set [6] concerns P388. The experiment in a line: In vitro cytotoxicity. It is filed as cell-based. To be noted: Mus musculus.
Source text: as §1

Data set [7] has as its system 4T1-LUC mammary tumor. Briefly: Mouse 4T1 breast cancer model. The format is in vivo, BALB/c mice. To be noted: 1 mg/kg LiPyDau, 5 mg/kg DOX, day 12 and 24; endpoint day 33. The protocol:
Mouse melanoma (B16), lung (Lewis lung carcinoma, LLC) and breast (4T1-LUC) cancer cell lines were used to establish allograft tumors for drug testing. 5×10^5 B16 or 2×10^5 LLC cells were inoculated subcutaneously in 200 μl serum-free culture media. 4T1-LUC tumors were established by injecting 1×10^6 cells in 20 μl serum-free culture media through the nipple directly to the breast tissue of 8 weeks old BALB/c mice on day 0). […] For the B16, LLC and 4T1-LUC tumor models 4, 6 and 6 mice were treated with LiPyDau while 4, 3 and 6 animals were in the saline treated groups, respectively.
Growth of 4T1-LUC tumor was monitored by bioluminescence imaging. Images were taken 10 minutes after tail vein injection of 150 mg/kg dose of D-luciferin into the mouse.

For data set [8], the system named is HT29. To be noted: HT29, NCI-60 database, sulforhodamine B; read-out: Cytotoxic IC50; cited from earlier work.
In data set [9] the test system is COLO 205. To be noted: COLO 205, NCI-60 database, sulforhodamine B; read-out: Cytotoxic IC50; cited from earlier work.
Data set [10] concerns HCC-2998. To be noted: HCC-2998, NCI-60 database, sulforhodamine B; read-out: Cytotoxic IC50; cited from earlier work.
The subject of data set [11] is KM12. To be noted: KM12, NCI-60 database, sulforhodamine B; read-out: Cytotoxic IC50; cited from earlier work.
The subject of data set [12] is SW-620. To be noted: SW-620, NCI-60 database, sulforhodamine B; read-out: Cytotoxic IC50; cited from earlier work.
In data set [13] the test system is EKVX. To be noted: NCI-60 database, sulforhodamine B, read-out: Cytotoxic IC50; cited from earlier work.
The subject of data set [14] is HOP-62. To be noted: HOP-62, NCI-60 database, sulforhodamine B; read-out: Cytotoxic IC50; cited from earlier work.
The test system of data set [15] is NCI-H226. To be noted: NCI-H226, NCI-60 database, sulforhodamine B; read-out: Cytotoxic IC50; cited from earlier work.
Data set [16] concerns PC-3. To be noted: PC-3, NCI-60 database, sulforhodamine B; read-out: Cytotoxic IC50; cited from earlier work.
For data set [17], the system named is HL-60(TB). To be noted: NCI-60 database, sulforhodamine B, read-out: Cytotoxic IC50; cited from earlier work.
For data set [18], the system named is CCRF-CEM. To be noted: NCI-60 database, sulforhodamine B, read-out: Cytotoxic IC50; cited from earlier work.
Data set [19] has as its system OVCAR-3. To be noted: OVCAR-3, NCI-60 database, sulforhodamine B; read-out: Cytotoxic IC50; cited from earlier work.
Data set [20] concerns OVCAR-5. To be noted: OVCAR-5, NCI-60 database, sulforhodamine B; read-out: Cytotoxic IC50; cited from earlier work.
For data set [21], the system named is UO-31. To be noted: UO-31, NCI-60 database, sulforhodamine B; read-out: Cytotoxic IC50; cited from earlier work.
Data set [22] deals with RXF 393. To be noted: RXF 393, NCI-60 database, sulforhodamine B; read-out: Cytotoxic IC50; cited from earlier work.
The subject of data set [23] is PANC-1. To be noted: PANC-1, from Varbanov et al. (2017), PrestoBlue; read-out: Cytotoxic IC50; cited from earlier work.
For data set [24], the system named is Brcal^−/−;p53^−/− tumors. To be noted: cited from earlier work.
Data set [25] has as its system HCT-15. The experiment in a line: In vitro cytotoxicity (PrestoBlue). The format is cell-based, human. To be noted: HCT-15, 72 h, read-out: Cytotoxic IC50.
Source text: as §1

The test system of data set [26] is HT29. The experiment in a line: In vitro cytotoxicity (PrestoBlue). The format is cell-based, human. To be noted: HT29, 72 h, read-out: Cytotoxic IC50.
Source text: as §1

For data set [27], the system named is MCF-7 human breast adenocarcinoma cells. To be noted: reported by Mező; cited from earlier work.
In data set [28] the test system is HT-29 human colon adenocarcinoma cells. To be noted: reported by Mező; cited from earlier work.
A short description of data set [29]: In vivo toxicity (dose-finding) studies. More on the design: species or system FVB mice. To be noted: 0.25 mg/kg given repeatedly, later experiments.
The subject of data set [30] is MDA-MB-231. Briefly: In vitro cytotoxicity (PrestoBlue). To be noted: Homo sapiens, MDA-MB-231, 72 h, read-out: Cytotoxic IC50.
Experimental: (§2) Cells were seeded in 40 μl medium on 384 well plates by an automatic liquid handling machine (Hamilton StarLet) in a density of 2500 cells/well. Adherent cells were cultured for 24 h before the addition of the compounds, while drugs were added to non-adherent cells 2 h after cell seeding. The drugs were serially diluted, and dispensed in an additional 20 μl. Cells were incubated for an additional 72 h, cytotoxicity was assessed by the PrestoBlue viability reagent (Thermo Fisher). Experiments were repeated at least 3 times.
The test system of data set [31] is MCF7. The experiment in a line: In vitro cytotoxicity (PrestoBlue). To be noted: Homo sapiens, MCF7, 72 h, read-out: Cytotoxic IC50.
Experimental: as §2

For the molecule `COc1cccc2c1C(=O)c1c(O)c3c(c(O)c1C2=O)C[C@@](O)(C(=O)CO)C[C@@H]3O[C@H]1C[C@H](N)[C@H](O)[C@H](C)O1` [DOX, doxorubicin], the IC50 (as a rule, the point on the concentration scale where inhibition reaches its midpoint) in data set [1] was 2450 nM; in data set [2] it was 170 nM; in data set [3], 65 nM; in data set [4], 20 nM; in data set [5] (read-out: IC50), 2040 nM; in [5] (read-out: IC50 + TQ, heading: IC50 + TQ, presence of 1 μM tariquidar), 690 nM. The IC50 in data set [6] is 150 nM; in data set [8] it was 171 nM; in data set [9], 158 nM; in [10], 181 nM; in [11] it was 223 nM; in data set [12] it was 70.1 nM. The IC50 in data set [13] was 484 nM; in data set [14] it was 60.4 nM; in data set [15], 52.4 nM; in [16], 246 nM; in data set [17], 62.4 nM; in data set [18] it was 37.2 nM. The IC50 in [19] was 335 nM; in data set [20], 588 nM; in data set [21], 553 nM; in data set [22], 160 nM; in [23], 460 nM. Also, in [7], the “Tumor growth / tumor cell viability” value is “small but significant effect on the growth of tumors”. Further, the “Outcome of treatment at MTD” value in data set [24] (DOX 5 mg/kg, PLD 8 mg/kg, FIG. 10 from Füredi et al.) was “all tumors developed resistance”. The “Maximum tolerable dose (MTD)” value in [24] (iv., FVB mice with Brcal^−/−;p53^−/− tumors) is 5 mg/kg.

In the case of `COc1cccc2c1C(=O)c1c(O)c3c(c(O)c1C2=O)C[C@@](O)(C(C)=O)C[C@@H]3O[C@H]1C[C@H]2[C@H](OC3CCCN32)[C@H](C)O1` (some centres unmarked) [PyDau, 2-deamino-2-pyrrolino-daunorubicin], the IC50 in data set [25] was 2.42 nM; in data set [25] (Homo sapiens), 2.86 nM; in data set [26], 3.53 nM; in data set [26] (Homo sapiens, HT-29, 72 h), 3.05 nM; in data set [27], 0.2 nM; in data set [28] it was 0.2 nM. For the same molecule, the IC50 in data set [30] was determined as 1.09 nM; in data set [31], 5.73 nM. For the same molecule, the “Toxicity when given repeatedly” value in data set [29] was “still toxic”.

Values taken from patent US20250032525A1 (priority 2021, published 2025).
